Results on 25 compounds are retold here after patent US20230339886A1 (University of Florida Research Foundation, Incorporated, priority 2020, published 2023).

T2 sequence (P20393 with tags, fused parts or gaps DEL324-422): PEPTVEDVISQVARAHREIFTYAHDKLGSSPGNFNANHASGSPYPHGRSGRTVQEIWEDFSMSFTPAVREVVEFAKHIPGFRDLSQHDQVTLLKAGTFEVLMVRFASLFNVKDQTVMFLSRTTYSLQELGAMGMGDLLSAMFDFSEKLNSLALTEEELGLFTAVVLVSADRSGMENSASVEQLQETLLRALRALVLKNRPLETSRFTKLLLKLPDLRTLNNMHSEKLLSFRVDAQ
T2 sequence (Q9Y618 2335-2356 partner limits assumed): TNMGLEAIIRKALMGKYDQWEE

One test addresses T1, REV-ERBβ (Homo sapiens, UniProt Q14995).
T1 construct: 6×Histag-REV-ERBα LBD (human; residues 381-579); made in house; host or cells: Escherichia coli
T1 sequence (Q14995 381-579): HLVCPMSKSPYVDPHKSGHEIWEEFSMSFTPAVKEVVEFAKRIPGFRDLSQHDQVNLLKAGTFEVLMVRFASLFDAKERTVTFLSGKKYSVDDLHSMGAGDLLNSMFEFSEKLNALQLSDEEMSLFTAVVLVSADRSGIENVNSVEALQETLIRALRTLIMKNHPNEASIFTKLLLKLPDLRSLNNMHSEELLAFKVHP
The test is described as follows: TR-FRET corepressor interaction assay (REV-ERBβ, FITC-SMRT peptide). As to conditions: Table 2, read-out: REVERBβ agonism (EC50 class, FRET assay). The test is classed as biochemical. As to the method:
TR-FRET corepressor interaction assay. The time-resolved fluorescence resonance energy transfer (TR-FRET) assay was performed in black low-volume 384-well plates (Greiner). […] Ligand stocks were prepared via serial dilution in DMSO, added to wells in triplicate, and plates were incubated at 4° C. for 2 h and read using a BioTek Synergy Neo multimode plate reader. The Tb donor was excited at 340 nm; its fluorescence emission was monitored at 495 nm, and the acceptor FITC emission was measured at 520 nm; and the TR-FRET ratio was calculated as the signal at 520 nm divided by the signal at 495 nm. Data were plotted using GraphPad Prism as TR-FRET ratio vs. ligand concentration and fit to sigmoidal dose response curve equation.
Exemplary compounds of the present disclosure were assayed as described above to assess agonism of REV-ERBα and REV-ERBβ.
In general terms: TR-FRET usually uses a lanthanide donor and a delayed reading to cut background.
Turning to `CC(C)Cn1cc(CCNS(=O)(=O)N(C)C)c2ccc(-c3ccncc3)cc21` [Compound 27, dimethyl({2-[1-(2-methylpropyl)-6-(pyridin-4-yl)-1H-indol-3-yl]ethyl}sulfamoyl)amine], the EC50 (as a rule, the concentration needed to bring the measured effect to its halfway point) is 500 to 3000 nM.

Another test has as its target T2, REV-ERBα LBD (human; residues 281-614 Δ324-422) (Homo sapiens, UniProt P20393, DEL324-422).
T2 construct: 6×Histag-REV-ERBα LBD (human; residues 281-614 Δ324-422); made in house; host or cells: Escherichia coli
The test is described as follows: TR-FRET corepressor interaction assay (REV-ERBα LBD, FITC-SMRT peptide). As to conditions: FITC-SMRT peptide, read-out: REVERBα agonism (EC50 class, FRET assay). The test is classed as biochemical. In short, it runs like this:
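Compound serial dilutions (in DMSO, triplicate) incubated 2 h at 4 °C; Tb donor excited at 340 nm, emission read at 495 nm and FITC acceptor at 520 nm. TR-FRET ratio (520/495 nm) plotted against ligand concentration and fitted to a sigmoidal dose-response curve.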
Regarding `N#Cc1cccc(F)c1-c1ccc2c([C@H](NS(=O)(=O)C3CCC3)C(F)(F)F)cn(C3CCOCC3)c2c1` [Example 526, (S)—N-(1-(6-(2-cyano-6-fluorophenyl)-1-(tetrahydro-2H-pyran-4-yl)-1H-indol-3-yl)-2,2,2-trifluoroethyl)cyclobutanesulfonamide], the EC50 is less than 500 nM.

For `CC(C)(C)Cn1cc([C@H](NS(=O)(=O)C2CCC2)C(F)F)c2ccc(-c3c(F)cccc3C(F)(F)F)cc21` [Example 527, (S)—N-(2,2-difluoro-1-(6-(2-fluoro-6-(trifluoromethyl)phenyl)-1-neopentyl-1H-indol-3-yl)ethyl)cyclobutanesulfonamide], the EC50 is less than 500 nM.

For the compound `CC(C)(C)Cn1cc([C@H](NS(=O)(=O)C2CCC2)C(F)(F)F)c2cc(F)c(-c3cccnc3C(F)(F)F)cc21` [Example 528, (S)—N-(2,2,2-trifluoro-1-(5-fluoro-1-neopentyl-6-(2-(trifluoromethyl)pyridin-3-yl)-1H-indol-3-yl)ethyl)cyclobutanesulfonamide], the EC50 is less than 500 nM.

In the case of `CC(C)(C)Cn1cc([C@H](NS(=O)(=O)C2CCC2)C(F)(F)F)c2cc(F)c(-c3cnccc3C(F)(F)F)cc21` [Example 530, (S)—N-(2,2,2-trifluoro-1-(5-fluoro-1-neopentyl-6-(4-(trifluoromethyl)pyridin-3-yl)-1H-indol-3-yl)ethyl)cyclobutanesulfonamide], the EC50 is less than 500 nM.

Consider `CC(C)(C)Cn1cc([C@H](NS(=O)(=O)C2CCC2)C(F)F)c2cc(F)c(-c3ccccc3C(F)(F)F)nc21` [Example 533, (S)—N-(2,2-difluoro-1-(5-fluoro-1-neopentyl-6-(2-(trifluoromethyl)phenyl)-1H-pyrrolo[2,3-b]pyridin-3-yl)ethyl)cyclobutanesulfonamide], for which the EC50 is less than 500 nM.

For `CC(C)(C)Cn1cc([C@H](NS(=O)(=O)C2CCC2)C(F)(F)F)c2ccc(-c3ccccc3C#N)nc21` [Example 534, (S)—N-(1-(6-(2-cyanophenyl)-1-neopentyl-1H-pyrrolo[2,3-b]pyridin-3-yl)-2,2,2-trifluoroethyl)cyclobutanesulfonamide], the EC50 is less than 500 nM.

`CC(C)(C)Cn1cc([C@H](NS(=O)(=O)C2CCC2)C(F)F)c2ccc(-c3c(C#N)cccc3C(F)(F)F)cc21` [Example 535, (S)—N-(1-(6-(2-cyano-6-(trifluoromethyl)phenyl)-1-neopentyl-1H-indol-3-yl)-2,2-difluoroethyl)cyclobutanesulfonamide]: the concentration giving a half-maximal response (EC50) was less than 500 nM.

Take `CC(C)(C)Cn1cc([C@H](NS(=O)(=O)C2CC2)C(F)(F)F)c2ccc(-c3ccccc3C(F)(F)F)c(F)c21` [Example 536, (S)—N-(2,2,2-trifluoro-1-(7-fluoro-1-neopentyl-6-(2-(trifluoromethyl)phenyl)-1H-indol-3-yl)ethyl)cyclopropanesulfonamide]: the EC50 is less than 500 nM.

For `CC(C)(C)Cn1cc([C@H](NS(=O)(=O)C2CCC2(F)F)C(F)(F)F)c2ccc(-c3ccccc3C(F)(F)F)cc21` (stereo partly drawn) [Example 537, 2,2-difluoro-N—((S)-2,2,2-trifluoro-1-(1-neopentyl-6-(2-(trifluoromethyl)phenyl)-1H-indol-3-yl)ethyl)cyclobutane-1-sulfonamide], the EC50 was greater than 3000 nM.

In the case of `CC(C)(C)Cn1cc([C@H](NS(=O)(=O)C2CCC2)C(F)(F)F)c2cc(F)c(-c3ncccc3C#N)cc21` [Example 538, (S)—N-(1-(6-(3-cyanopyridin-2-yl)-5-fluoro-1-neopentyl-1H-indol-3-yl)-2,2,2-trifluoroethyl)cyclobutanesulfonamide], the EC50 is less than 500 nM.

For the compound `CC(C)(C)Cn1cc([C@H](NS(=O)(=O)C2CC2)C(F)F)c2ccc(-c3ccccc3C(F)(F)F)cc21` [Example 541, (S)—N-(2,2-difluoro-1-(1-neopentyl-6-(2-(trifluoromethyl)phenyl)-1H-indol-3-yl)ethyl)cyclopropanesulfonamide], the EC50 is less than 500 nM.

Turning to `CC(C)(C)Cn1cc([C@H](NS(=O)(=O)C2CC2)C(F)F)c2cc(F)c(-c3ccccc3C(F)(F)F)cc21` [Example 542, (S)—N-(2,2-difluoro-1-(5-fluoro-1-neopentyl-6-(2-(trifluoromethyl)phenyl)-1H-indol-3-yl)ethyl)cyclopropanesulfonamide], the concentration giving a half-maximal response (EC50) is less than 500 nM.

In the case of `CC(C)(C)Cn1cc([C@H](NS(=O)(=O)C2CC2)C(F)F)c2ccc(-c3c(F)cccc3C(F)(F)F)cc21` [Example 543, (S)—N-(2,2-difluoro-1-(6-(2-fluoro-6-(trifluoromethyl)phenyl)-1-neopentyl-1H-indol-3-yl)ethyl)cyclopropanesulfonamide], the EC50 was less than 500 nM.

Consider `CC(C)(C)Cn1cc([C@H](NS(=O)(=O)C2CCC2)C(F)(F)F)c2ccc(-c3ccccc3C(F)(F)F)c(F)c21` [Example 544, (S)—N-(2,2,2-trifluoro-1-(7-fluoro-1-neopentyl-6-(2-(trifluoromethyl)phenyl)-1H-indol-3-yl)ethyl)cyclobutanesulfonamide], for which the EC50 was less than 500 nM.

Consider `CC(C)(C)Cn1cc([C@H](NS(=O)(=O)C2CC2)C(F)F)c2ccc(-c3c(C#N)cccc3C(F)(F)F)cc21` [Example 545, (S)—N-(1-(6-(2-cyano-6-(trifluoromethyl)phenyl)-1-neopentyl-1H-indol-3-yl)-2,2-difluoroethyl)cyclopropanesulfonamide], for which the EC50 was less than 500 nM.

Consider `CC(C)(C)Cn1cc([C@H](NS(=O)(=O)C2CC2)C(F)F)c2cc(F)c(-c3ccccc3C(F)(F)F)nc21` [Example 546, (S)—N-(2,2-difluoro-1-(5-fluoro-1-neopentyl-6-(2-(trifluoromethyl)phenyl)-1H-pyrrolo[2,3-b]pyridin-3-yl)ethyl)cyclopropanesulfonamide], for which the 50% effective concentration (EC50) was less than 500 nM.

Turning to `CC(C)(C)Cn1cc([C@H](NS(=O)(=O)C2CC2)C(F)F)c2ccc(-c3ccccc3C(F)(F)F)nc21` [Example 547, (S)—N-(2,2-difluoro-1-(1-neopentyl-6-(2-(trifluoromethyl)phenyl)-1H-pyrrolo[2,3-b]pyridin-3-yl)ethyl)cyclopropanesulfonamide], the EC50 is less than 500 nM.

In the case of `[2H][C@](NS(=O)(=O)C1CC1)(c1cn(CC(C)(C)C)c2cc(-c3ccccc3C(F)(F)F)ccc12)C(F)F` [Example 550, (S)—N-(2,2-difluoro-1-(1-neopentyl-6-(2-(trifluoromethyl)phenyl)-1H-indol-3-yl)ethyl-1-d)cyclopropanesulfonamide], the EC50 is less than 500 nM.

For the compound `CC(C)(C)Cn1cc([C@H](NS(=O)(=O)C2CC2)C(F)F)c2ccc(-c3ccc(F)cc3C(F)(F)F)cc21` [Example 551, (S)—N-(2,2-difluoro-1-(6-(4-fluoro-2-(trifluoromethyl)phenyl)-1-neopentyl-1H-indol-3-yl)ethyl)cyclopropanesulfonamide], the EC50 is less than 500 nM.

As for `CC(C)(C)Cn1cc([C@H](NS(=O)(=O)C2CCC2)C(F)F)c2ccc(-c3ccccc3C(F)(F)F)c(F)c21` [Example 552, (S)—N-(2,2-difluoro-1-(7-fluoro-1-neopentyl-6-(2-(trifluoromethyl)phenyl)-1H-indol-3-yl)ethyl)cyclobutanesulfonamide], the EC50 is less than 500 nM.

With `CC(C)(C)Cn1cc([C@H](NS(=O)(=O)C2CC2)C(F)F)c2ccc(-c3ccccc3C(F)(F)F)c(F)c21` [Example 553, (S)—N-(2,2-difluoro-1-(7-fluoro-1-neopentyl-6-(2-(trifluoromethyl)phenyl)-1H-indol-3-yl)ethyl)cyclopropanesulfonamide], the EC50 is less than 500 nM.

With `CC(C)(C)Cn1cc([C@H](NS(=O)(=O)C2CCC2)C(F)F)c2ccc(-c3ccc(F)cc3C(F)(F)F)cc21` [Example 562, (S)—N-(2,2-difluoro-1-(6-(4-fluoro-2-(trifluoromethyl)phenyl)-1-neopentyl-1H-indol-3-yl)ethyl)cyclobutanesulfonamide], the EC50 is less than 500 nM.

As to `[2H][C@](NS(=O)(=O)C1CCC1)(c1cn(CC(C)(C)C)c2cc(-c3ccccc3C(F)(F)F)ccc12)C(F)F` [Example 563, (S)—N-(2,2-difluoro-1-(1-neopentyl-6-(2-(trifluoromethyl)phenyl)-1H-indol-3-yl)ethyl-1-d)cyclobutanesulfonamide], the EC50 was less than 500 nM.

In the case of `[2H]C([2H])(n1cc([C@H](NS(=O)(=O)C2CC2)C(F)(F)F)c2ccc(-c3ccccc3C(F)(F)F)cc21)C(C)(C)C` [Example 564, (S)—N-(1-(1-(2,2-dimethylpropyl-1,1-d2)-6-(2-(trifluoromethyl)phenyl)-1H-indol-3-yl)-2,2,2-trifluoroethyl)cyclopropanesulfonamide], the EC50 was less than 500 nM.
